Assay results: patent US10227331B2 (priority 2015, dated 2019)

Experiments:
[1] = system: P. aeruginosa expressing IMP-1, efflux− (MB9799); assay: Efflux: concentration of MBL inhibitor which restores susceptibility to imipenem; assay type: cell-based, Pseudomonas aeruginosa; conditions: imipenem at 2 μg/mL, in the presence of a class A, C, D serine β-lactamase inhibitor closely related to relebactam
Description: (§1) The strain background is Pseudomonas aeruginosa PAO1.

VIM-1 = VIM-1 (Pseudomonas aeruginosa (strain ATCC 15692 / DSM 22644 / CIP 104116 / JCM 14847 / LMG 12228 / 1C / PRS 101 / PAO1), UniProt A0A0F7KYQ8); assay: biochemical; conditions: CCF2-FA substrate, 2 hours at 25° C
Method in brief: (§2)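 IC50 values derive from 4-parameter fits of percent inhibition against inhibitor concentration on semi-log axes. Activity was monitored by fluorescence with the CCF2-FA substrate after a 2-hour, 25° C incubation of compound, enzyme and substrate.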

[2] = system: Klebsiella pneumoniae expressing VIM-1 (IHMA599644); assay type: cell-based; conditions: with imipenem 1 μg/ml; 95% inhibition of bacterial growth
Method in brief: (§3)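 Restoration of imipenem susceptibility (1 μg/ml imipenem) was judged by absorbance after 22–24 h at 35° C. Test compound was added to bacteria suspended 1:100 in 1.1× CAMHB from overnight blood-agar cultures.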

[3] = system: Escherichia coli expressing NDM-1 (CLB30005, CLB30016); assay type: cell-based; conditions: with imipenem 1 μg/ml; 95% inhibition of bacterial growth
Method in brief: as §3

[4] = system: Serratia marcescens expressing IMP-1 (CL5741); assay type: cell-based; conditions: with imipenem 1 μg/ml; 95% inhibition of bacterial growth
Method in brief: as §3

[5] = system: P. aeruginosa expressing IMP-1, efflux+ (MB9798); assay type: cell-based, Pseudomonas aeruginosa; conditions: for P. aeruginosa expressing IMP-1, efflux+ (MB9798) MITC95: imipenem at 2 μg/mL, in the presence of a class A, C, D serine β-lactamase inhibitor closely related to relebactam; for Efflux ratio: ratio MITC95 PA_9798/MITC95 PA_9799
Description: as §1

NDM-1 = NDM-1 (Klebsiella pneumoniae, UniProt C7C422); assay: biochemical; assay type: biochemical; conditions: CCF2-FA substrate, 2 hours at 25° C; read-out: NDM-1 IC50
Chain of NDM-1 (C7C422 whole entry, looked up, species assumed): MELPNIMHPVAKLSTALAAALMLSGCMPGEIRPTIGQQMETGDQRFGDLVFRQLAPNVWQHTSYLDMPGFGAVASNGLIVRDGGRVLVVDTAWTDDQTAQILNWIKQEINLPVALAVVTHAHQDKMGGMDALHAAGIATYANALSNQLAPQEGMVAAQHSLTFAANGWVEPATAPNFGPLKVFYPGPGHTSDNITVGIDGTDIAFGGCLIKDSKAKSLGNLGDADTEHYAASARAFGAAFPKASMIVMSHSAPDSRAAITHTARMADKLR
Method in brief: as §2

IMP-1 = IMP-1 (Serratia marcescens, UniProt P52699); assay: biochemical; assay type: biochemical; conditions: CCF2-FA substrate, 2 hours at 25° C; read-out: IMP-1 IC50
Chain of IMP-1 (P52699 whole entry, looked up, species assumed): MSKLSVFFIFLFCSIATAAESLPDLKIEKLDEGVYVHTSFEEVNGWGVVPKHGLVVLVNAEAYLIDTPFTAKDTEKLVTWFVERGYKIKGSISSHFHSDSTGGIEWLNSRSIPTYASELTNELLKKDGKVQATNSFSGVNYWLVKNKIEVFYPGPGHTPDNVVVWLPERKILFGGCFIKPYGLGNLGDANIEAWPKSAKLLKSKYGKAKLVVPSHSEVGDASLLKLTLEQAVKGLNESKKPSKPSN
Method in brief: as §2

SMILES | P. aeruginosa expressing IMP-1, efflux− (MB9799) MITC95 [1] [µM] | IC50 (VIM-1) [nM] | Klebsiella pneumoniae expressing VIM-1 (IHMA599644) MITC95 [2] [µM] | Escherichia coli expressing NDM-1 (CLB30016) MITC95 [3] [µM] | Serratia marcescens expressing IMP-1 (CL5741) MITC95 [4] [µM] | P. aeruginosa expressing IMP-1, efflux+ (MB9798) MITC95 [5] [µM] | Efflux ratio [5] | IC50 (NDM-1) [nM] | IC50 (IMP-1) [nM]
CS(=O)(=O)c1ccc(-c2cnc3ccccn23)c(-c2nn[nH]n2)c1S(N)(=O)=O [Example 238, 3-(Imidazo[1,2-a]pyridin-3-yl)-6-(methylsulfonyl)-2-(2H-tetrazol-5-yl) benzenesulfonamide] | 1.563 | 0.201 | 6.25 | 3.125 | 3.125 | 50 | 31.99 | 0.862 | 0.333
CS(=O)(=O)c1ccc(-c2cccc3sc(N)nc23)c(-c2nn[nH]n2)c1S(N)(=O)=O [Example 239, 3-(2-aminobenzo[d]thiazol-4-yl)-6-(methylsulfonyl)-2-(2H-tetrazol-5-yl) benzenesulfonamide] | 1.563 | 0.108 | 6.25 | 12.5 | 3.125 | 1.563 | 1.00 | 0.129 | 0.0909
CS(=O)(=O)c1ccc(-c2cccc3nc(N)[nH]c23)c(-c2nn[nH]n2)c1S(N)(=O)=O [Example 240, 3-(2-Amino-1H-benzo[d]imidazol-7-yl)-6-(methylsulfonyl)-2-(2H-tetrazol-5-yl) benzenesulfonamide] | 12.5 | 2.6 | 25 | 3.125 | 12.5 | 50 | 4.00 | 4.77 | 7.46
CS(=O)(=O)c1ccc(-c2ccc(NS(=O)(=O)C3CC3)cc2)c(-c2nn[nH]n2)c1S(N)(=O)=O [Example 241, 4′-(Cyclopropanesulfonamido)-4-(methylsulfonyl)-2-(2H-tetrazol-5-yl)-[1,1′-biphenyl]-3-sulfonamide] | 1.563 | 0.0868 | 12.5 | 6.25 | 3.125 | 12.5 | 8.00 | 0.658 | 0.0444
NS(=O)(=O)c1c(Sc2ccncc2)ccc(-c2ccc(C3CCNCC3)cc2)c1-c1nn[nH]n1 [Example 242, 4′-(Piperidin-4-yl)-4-(pyridin-4-ylthio)-2-(2H-tetrazol-5-yl)-[1,1′-biphenyl]-3-sulfonamide] | 1.563 | 7.47 | 50 | 12.5 | 6.25 | 50 | 31.99 | 4.01 | 3.34
NS(=O)(=O)c1c(SC2CNC2)ccc(-c2ccc(NS(=O)(=O)C3CC3)cc2)c1-c1nn[nH]n1 [Example 243, 4-(Azetidin-3-ylthio)-4′-(cyclopropanesulfonamido)-2-(2H-tetrazol-5-yl)-[1,1′-biphenyl]-3-sulfonamide] | 0.7813 | 9.86 | 12.5 | 3.125 | 3.125 | 100 | 127.99 | 5.88 | 11.3
NS(=O)(=O)c1c(S(=O)(=O)C2CNC2)ccc(-c2ccc(NS(=O)(=O)C3CC3)cc2)c1-c1nn[nH]n1 [Example 244, 4-(Azetidin-3-ylsulfonyl)-4′-(cyclopropanesulfonamido)-2-(2H-tetrazol-5-yl)-[1,1′-biphenyl]-3-sulfonamide] | 1.563 | 0.112 | 6.25 | 3.125 | 3.125 | 6.25 | 4.00 | 0.156 | 0.144
